Measured values: PubChem BioAssay AID2060910 (Molecular Pharmacology Branch, DTP, NCI, 2025)

Tested on: 242566-281-R-J2-PDC complex spheroid viability
Assay: Anticancer human tumor 242566-281-R-J2-PDC patient-derived pancreatic carcinoma cell line growth inhibition [RAS]
Details: for IC50: curve of first compound; for viability, T/C: stronger effect = lower value
Excerpt: RAS pathway inhibitors in Combinations in Complex Spheroids
A high-throughput screen of multi-cell type tumor spheroids was designed to identify active combinations of RAS pathway inhibitors and targeted small molecules. Complex spheroids include a stromal component modeled by human endothelial cells (HUVEC) and fibroblasts modeled by human mesenchymal stem cells (MSCs). The concentration ranges selected for each drug and investigational agent were based upon clinically achievable concentrations if the clinical Cmax of the agent was known.
Compounds. The drugs and investigational agents: abemaciclib (NSC768073), cobimetinib (NSC768068), divarasib (GDC6063, NSC841802), docetaxel (NSC628503), GDC-1971 (RLY-1971, NSC841576), gemcitabine (NSC613327), inavolisib (NSC800729), ipatasertib (NSC767898), KB-0742 (NSC834161), MRTX-1133 (NSC836407), osimertinib (NSC779217), RMC-4630 (NSC839698), RMC-6236 (NSC851965), RMC-6291 (NSC852671), Ro-3306 (NSC812927), sapanisertib (NSC764658), SN-38 (NSC673596), staurosporine (NSC755774), SY5609 (NSC837396), and tovorafenib (DAY101, NSC766906), were obtained from the National Cancer Institute (NCI) Developmental Therapeutics Program Chemical Repository. The FDA-approved anticancer drug set is available from the NCI Developmental Therapeutics Program. […] The stock solutions were prepared in dimethyl sulfoxide (DMSO, Sigma-Aldrich, St. Louis, MO, cat. D2650) at 800-fold the tested concentration and stored at -70 degrees C prior to their use. All drugs and investigational agents were tested over a range starting from a high concentration at or near the clinical Cmax and decreasing in half-log increments. If the clinical Cmax for an agent had not been determined, the highest concentration tested was 10 microM.
Cell Culture. All cells were maintained in an incubator at 37 degrees C and 5% CO2 with 95% humidity. The PDC lines were cultured according to standard operating procedures established by the NCI PDMR. All PDCs were thawed and cultured in Matrigel-coated flasks prepared with a working solution of 1X Ham's F-12 nutrient mix, without supplementation (Invitrogen, Waltham, MA, cat. 11765054), 100 U/mL penicillin-streptomycin (Invitrogen, cat. 15140122), and 2.5% Matrigel (Corning Inc., Corning, NY, cat. 354248) for the first three passages. The 362531-283-R-J2-PDC and 782815-120-R-J1-PDC lines were cultured in 6C/Colon 1B media, which includes advanced DMEM/F-12 (Thermo Fisher Scientific, cat. 12634028), 10 mM HEPES (Thermo Fisher Scientific, cat. 15630080), 1X GlutaMAX supplement (Thermo Fisher Scientific, cat. 35050061), 0.1 mg/mL primocin (InvivoGen, San Diego, CA, cat. ant-pm-2), 10% defined fetal bovine serum, heat inactivated (HyClone Laboratories Inc., Logan, UT, cat. SH30070.03HI), 50% L-WRN conditioned media (ATCC, cat. CRL-3276), 1.25 mM N-Acetyl-L-cysteine (Sigma-Aldrich, cat. A9165), 10 mM nicotinamide (Sigma-Aldrich, cat. N0636), 1X B-27 supplement (Thermo Fisher Scientific, cat. 17504044), 1X N-2 supplement (Thermo Fisher Scientific, cat. 17502048), 50 ng/mL human EGF (Thermo Fisher Scientific, cat. PHG0311), and 10 microM Y-27632 dihydrochloride (Tocris Bioscience, cat. 1254). The K12877-001-R-J1-PDC line was cultured in 6I media, which includes all 6C/Colon 1B media plus 10 ng/mL human FGF-10 (PeproTech, cat. 100-26), 1 ng/mL human FGF-2 (PeproTech, cat. 100-18B), 1 µM prostaglandin E2 (Tocris Bioscience, cat. 2296), […] hydrocortisone (Sigma-Aldrich, cat. H4001), and […] bovine insulin (Sigma-Aldrich, cat. I6634). The K86415-001-R-J1-PDC line was cultured in 6D media, which includes all 6C/Colon 1B media components minus the L-WRN conditioned media. The 485176-168-R4-J1-PDC was cultured in PANC media, which includes all 6C/Colon 1B media plus 100 ng/mL human FGF-10 (PeproTech, cat. 100-26), 500 nM SB-431542 (Selleckchem, cat. S1067), and 10 nM gastrin (Tocris Bioscience, cat. 3006). […]
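Further: spheroids exposed to compound for 7 days before readout.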
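Wherever viability, T/C is given: 100% = DMSO vehicle control wells.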

SMILES: C=CC(=O)Nc1cc(Nc2nccc(-c3cn(C)c4ccccc34)n2)c(OC)cc1N(C)CCN(C)C + CCn1c(-c2cc(N3CCN(C)CC3)cnc2C(C)OC)c2c3cc(ccc31)-c1csc(n1)CC(NC(=O)C1CC1C)C(=O)N1CCCC(N1)C(=O)OCC(C)(C)C2
- IC50 (second compound 0.000949 µM): 323 nM
- IC50 (second compound 0.003 µM): 71.6 nM
- IC50 (second compound 0.00949 µM): < 3.16 nM
- IC50 (second compound 0.03 µM): < 3.16 nM
- IC50 (second compound 0.0949 µM): < 3.16 nM
- IC50 (second compound 0.3 µM): < 3.16 nM
- viability, T/C (second compound 0.000949 µM, first compound 0.00316 µM): 90.9%
- viability, T/C (second compound 0.000949 µM, first compound 0.01 µM): 90%
- viability, T/C (second compound 0.000949 µM, first compound 0.0316 µM): 61.8%
- viability, T/C (second compound 0.000949 µM, first compound 0.1 µM): 75.8%
- viability, T/C (second compound 0.000949 µM, first compound 0.316 µM): 51.8%
- viability, T/C (second compound 0.000949 µM, first compound 1 µM): 25.3%
- viability, T/C (second compound 0.003 µM, first compound 0.00316 µM): 76%
- viability, T/C (second compound 0.003 µM, first compound 0.01 µM): 61.4%
- viability, T/C (second compound 0.003 µM, first compound 0.0316 µM): 54.9%
- viability, T/C (second compound 0.003 µM, first compound 0.1 µM): 52.2%
- viability, T/C (second compound 0.003 µM, first compound 0.316 µM): 35.2%
- viability, T/C (second compound 0.003 µM, first compound 1 µM): 19%
- viability, T/C (second compound 0.00949 µM, first compound 0.00316 µM): 48.4%
- viability, T/C (second compound 0.00949 µM, first compound 0.01 µM): 40.9%
- viability, T/C (second compound 0.00949 µM, first compound 0.0316 µM): 41.2%
- viability, T/C (second compound 0.00949 µM, first compound 0.1 µM): 30.7%
- viability, T/C (second compound 0.00949 µM, first compound 0.316 µM): 21.2%
- viability, T/C (second compound 0.00949 µM, first compound 1 µM): 15.3%
- viability, T/C (second compound 0.03 µM, first compound 0.00316 µM): 31.3%
- viability, T/C (second compound 0.03 µM, first compound 0.01 µM): 30.7%
- viability, T/C (second compound 0.03 µM, first compound 0.0316 µM): 24%
- viability, T/C (second compound 0.03 µM, first compound 0.1 µM): 22%
- viability, T/C (second compound 0.03 µM, first compound 0.316 µM): 14.8%
- viability, T/C (second compound 0.03 µM, first compound 1 µM): 16.7%
- viability, T/C (second compound 0.0949 µM, first compound 0.00316 µM): 21.2%
- viability, T/C (second compound 0.0949 µM, first compound 0.01 µM): 20.6%
- viability, T/C (second compound 0.0949 µM, first compound 0.0316 µM): 20.1%
- viability, T/C (second compound 0.0949 µM, first compound 0.1 µM): 18.1%
- viability, T/C (second compound 0.0949 µM, first compound 0.316 µM): 13%
- viability, T/C (second compound 0.0949 µM, first compound 1 µM): 15.9%
- viability, T/C (second compound 0.3 µM, first compound 0.00316 µM): 18.6%
- viability, T/C (second compound 0.3 µM, first compound 0.01 µM): 18.2%
- viability, T/C (second compound 0.3 µM, first compound 0.0316 µM): 15.7%
- viability, T/C (second compound 0.3 µM, first compound 0.1 µM): 14%
- viability, T/C (second compound 0.3 µM, first compound 0.316 µM): 14.6%
- viability, T/C (second compound 0.3 µM, first compound 1 µM): 14.9%
